Assay results taken from patent publication US8222278B2, “Treatment of attention-deficit/hyperactivity disorder” (Abbott Laboratories, priority 2008, dated 2012).

Test system: adults with ADHD
Test: Study A: treatment-emergent adverse events (safety dataset)

With `Clc1cc(N2C[C@@H]3CN[C@@H]3C2)cnc1Cl` [ABT-894, 3-(5,6-Dichloro-pyridin-3-yl)-1S,5S-3,6-diazabicyclo[3.2.0]heptane] the “Headache, number of subjects” value (ABT-894 4 mg BID, N = 46) was 4 subjects, the “Lethargy, % of subjects” value (ABT-894 4 mg BID, N = 46) was “(0) %” and the “Lethargy, number of subjects” value (ABT-894 4 mg BID, N = 46) was 0 subjects. The “Muscle Strain, % of subjects” value (ABT-894 4 mg BID, N = 46) was “(0) %”, the “Muscle Strain, number of subjects” value (ABT-894 4 mg BID, N = 46) was 0 subjects and the “Nasal congestion, % of subjects” value (ABT-894 4 mg BID, N = 46) was “(6.5) %”. For the same compound, the “Nasal congestion, number of subjects” value (ABT-894 4 mg BID, N = 46) was 3 subjects, the “Nausea, % of subjects” value (ABT-894 4 mg BID, N = 46) was “(8.7) %” and the “Nausea, number of subjects” value (ABT-894 4 mg BID, N = 46) was 4 subjects. The “Parathesia, % of subjects” value (ABT-894 4 mg BID, N = 46) was “(0) %”, the “Parathesia, number of subjects” value (ABT-894 4 mg BID, N = 46) was 0 subjects and the “Sleep disturbances, % of subjects” value (ABT-894 4 mg BID, N = 46) was “(4.3) %”. For the same compound, the “Sleep disturbances, number of subjects” value (ABT-894 4 mg BID, N = 46) was 2 subjects, the “Somnolence, % of subjects” value (ABT-894 4 mg BID, N = 46) was “(4.3) %” and the “Somnolence, number of subjects” value (ABT-894 4 mg BID, N = 46) was 2 subjects. For the same compound, the “Upper RTI, % of subjects” value (ABT-894 4 mg BID, N = 46) was “(0) %”, the “Upper RTI, number of subjects” value (ABT-894 4 mg BID, N = 46) was 0 subjects and the “Vomiting, % of subjects” value (ABT-894 4 mg BID, N = 46) was “(2.2) %”. The “Vomiting, number of subjects” value (ABT-894 4 mg BID, N = 46) was 1 subjects, the “Any Adverse Event, % of subjects” value (ABT-894 4 mg QD, N = 40) was “(65.0) %” and the “Any Adverse Event, number of subjects” value (ABT-894 4 mg QD, N = 40) was 26 subjects. For the same compound, the “Decreased appetite, % of subjects” value (ABT-894 4 mg QD, N = 40) was “(5.0) %”, the “Decreased appetite, number of subjects” value (ABT-894 4 mg QD, N = 40) was 2 subjects and the “Diarrhea, % of subjects” value (ABT-894 4 mg QD, N = 40) was “(7.5) %”. The “Diarrhea, number of subjects” value (ABT-894 4 mg QD, N = 40) was 3 subjects, the “Dizziness, % of subjects” value (ABT-894 4 mg QD, N = 40) was “(10.0) %” and the “Dizziness, number of subjects” value (ABT-894 4 mg QD, N = 40) was 4 subjects. For the same compound, the “Dry mouth, % of subjects” value (ABT-894 4 mg QD, N = 40) was “(0) %”, the “Dry mouth, number of subjects” value (ABT-894 4 mg QD, N = 40) was 0 subjects and the “Fatigue, % of subjects” value (ABT-894 4 mg QD, N = 40) was “(5.0) %”. For the same compound, the “Fatigue, number of subjects” value (ABT-894 4 mg QD, N = 40) was 2 subjects, the “Feeling hot and cold, % of subjects” value (ABT-894 4 mg QD, N = 40) was “(0) %” and the “Feeling hot and cold, number of subjects” value (ABT-894 4 mg QD, N = 40) was 0 subjects. For the same compound, the “Feeling jittery, % of subjects” value (ABT-894 4 mg QD, N = 40) was “(0) %”, the “Feeling jittery, number of subjects” value (ABT-894 4 mg QD, N = 40) was 0 subjects and the “Headache, % of subjects” value (ABT-894 4 mg QD, N = 40) was “(12.5) %”. For the same compound, the “Headache, number of subjects” value (ABT-894 4 mg QD, N = 40) was 5 subjects, the “Lethargy, % of subjects” value (ABT-894 4 mg QD, N = 40) was “(2.5) %” and the “Lethargy, number of subjects” value (ABT-894 4 mg QD, N = 40) was 1 subjects. For the same compound, the “Muscle Strain, % of subjects” value (ABT-894 4 mg QD, N = 40) was “(0) %”, the “Muscle Strain, number of subjects” value (ABT-894 4 mg QD, N = 40) was 0 subjects and the “Nasal congestion, % of subjects” value (ABT-894 4 mg QD, N = 40) was “(0) %”. The “Nasal congestion, number of subjects” value (ABT-894 4 mg QD, N = 40) was 0 subjects, the “Nausea, % of subjects” value (ABT-894 4 mg QD, N = 40) was “(22.5) %” and the “Nausea, number of subjects” value (ABT-894 4 mg QD, N = 40) was 9 subjects. For the same compound, the “Parathesia, % of subjects” value (ABT-894 4 mg QD, N = 40) was “(0) %”, the “Parathesia, number of subjects” value (ABT-894 4 mg QD, N = 40) was 0 subjects and the “Sleep disturbances, % of subjects” value (ABT-894 4 mg QD, N = 40) was “(7.5) %”. The “Sleep disturbances, number of subjects” value (ABT-894 4 mg QD, N = 40) was 3 subjects, the “Somnolence, % of subjects” value (ABT-894 4 mg QD, N = 40) was “(0) %” and the “Somnolence, number of subjects” value (ABT-894 4 mg QD, N = 40) was 0 subjects. For the same compound, the “Upper RTI, % of subjects” value (ABT-894 4 mg QD, N = 40) was “(7.5) %”, the “Upper RTI, number of subjects” value (ABT-894 4 mg QD, N = 40) was 3 subjects and the “Vomiting, % of subjects” value (ABT-894 4 mg QD, N = 40) was “(10.0) %”. For the same compound, the “Vomiting, number of subjects” value (ABT-894 4 mg QD, N = 40) was 4 subjects, the “Any Adverse Event, number of subjects” value (Total ABT-894, N = 174) was 109 subjects and the “Decreased appetite, % of subjects” value (Total ABT-894, N = 174) was “(1.1) %”. The “Decreased appetite, number of subjects” value (Total ABT-894, N = 174) was 2 subjects, the “Diarrhea, % of subjects” value (Total ABT-894, N = 174) was “(3.4) %” and the “Diarrhea, number of subjects” value (Total ABT-894, N = 174) was 6 subjects. For the same compound, the “Dizziness, % of subjects” value (Total ABT-894, N = 174) was “(6.3) %”, the “Dizziness, number of subjects” value (Total ABT-894, N = 174) was 11 subjects and the “Dry mouth, % of subjects” value (Total ABT-894, N = 174) was “(1.7) %”. The “Dry mouth, number of subjects” value (Total ABT-894, N = 174) was 3 subjects, the “Fatigue, % of subjects” value (Total ABT-894, N = 174) was “(5.2) %” and the “Fatigue, number of subjects” value (Total ABT-894, N = 174) was 9 subjects. For the same compound, the “Feeling hot and cold, % of subjects” value (Total ABT-894, N = 174) was “(0) %”, the “Feeling hot and cold, number of subjects” value (Total ABT-894, N = 174) was 0 subjects and the “Feeling jittery, % of subjects” value (Total ABT-894, N = 174) was “(0) %”. For the same compound, the “Feeling jittery, number of subjects” value (Total ABT-894, N = 174) was 0 subjects, the “Headache, % of subjects” value (Total ABT-894, N = 174) was “(10.3) %” and the “Headache, number of subjects” value (Total ABT-894, N = 174) was 18 subjects. The “Lethargy, % of subjects” value (Total ABT-894, N = 174) was “(0.6) %”, the “Lethargy, number of subjects” value (Total ABT-894, N = 174) was 1 subjects and the “Muscle Strain, % of subjects” value (Total ABT-894, N = 174) was “(1.7) %”. For the same compound, the “Muscle Strain, number of subjects” value (Total ABT-894, N = 174) was 3 subjects, the “Nasal congestion, % of subjects” value (Total ABT-894, N = 174) was “(1.7) %” and the “Nasal congestion, number of subjects” value (Total ABT-894, N = 174) was 3 subjects. The “Nausea, number of subjects” value (Total ABT-894, N = 174) was 21 subjects, the “Parathesia, % of subjects” value (Total ABT-894, N = 174) was “(0) %” and the “Parathesia, number of subjects” value (Total ABT-894, N = 174) was 0 subjects. For the same compound, the “Sleep disturbances, % of subjects” value (Total ABT-894, N = 174) was “(7.5) %”, the “Sleep disturbances, number of subjects” value (Total ABT-894, N = 174) was 13 subjects and the “Somnolence, % of subjects” value (Total ABT-894, N = 174) was “(4.6) %”. The “Somnolence, number of subjects” value (Total ABT-894, N = 174) was 8 subjects, the “Upper RTI, % of subjects” value (Total ABT-894, N = 174) was “(4.0) %” and the “Upper RTI, number of subjects” value (Total ABT-894, N = 174) was 7 subjects. For the same compound, the “Vomiting, % of subjects” value (Total ABT-894, N = 174) was “(3.4) %”, the “Vomiting, number of subjects” value (Total ABT-894, N = 174) was 6 subjects and the Safety and tolerability (adults with ADHD, all doses) was “generally was safe and well tolerated”.
